Square brackets hold non-standard residues; d marks the D form. Ends that are not written are not given here. Peptide text beside a SMILES is read from it. Hyp = O=C(O)[C@@H]1C[C@@H](O)CN1
Legend:
in vivo = conditions: male, Wister, rat, po, 215 nmol/10 mL
Method: (§1) Wister strain male rats (170 g) were caused to go on a fast of one night and then subjected to experiments.
(§2) As a test method, a cannula was equipped to a heart and portal vein of each rat, and one-directional perfusion was carried out. The perfusion liquid being used was prepared in a way that to a Krebs-Ringer bicarbonate solution (KRB solution, pH 7.4) comprising 9.0 g of NaCl, 8 mL of 5.75% KCl, 2 mL of 10.55% KH2PO4, 2 mL of 19% MgSO4, 2.73 g of NaHCO3, 3.43 g of glucose and 1255 mL of water, there was added 10 g of bovine serum albumin, 0.5 mL of dexamethasone (0.123 mg/mL) and 0.5 mL of noradrenaline (0.024 mg/mL) relative to 500 mL of the aforementioned KRB solution.
(§3) An amount of 0.5 mL of 30% sulfosalicylic acid was added to 5.0 mL of perfusion sample liquid taken from portal vein, and the resultant mixture was vigorously stirred and then left in a refrigerator for one night. This sample was centrifuged at 3000 rpm for 10 minutes to remove protein.
(§4) Furthermore, 3.0 mL of the aforementioned centrifugal supernatant was weighed out and placed into a screw opening test tube, and thereto an equivalent of concentrated hydrochloric acid was added to carry out hydrolysis at 110° C. for 24 hours. Concentration to dryness was carried out with an evaporator to remove hydrochloric acid, and then the residue was dissolved into 5 mL of distilled water, and thereto several drops of saturated lithium hydroxide solution were added to adjust pH to the range of 5 to 7, and the volume was adjusted to 10 mL. […] A value obtained by subtracting the free type Hyp amount before hydrolysis from the total Hyp amount after hydrolysis is a peptide-form Hyp amount.
(§5) Analysis of the dipeptides in the perfusion liquid was carried out by reversed-phase HPLC analysis. As HPLC apparatus, LCSS-905 system produced by JASCO Corporation comprising a liquid-feeding pump, a decassa, an autosamplor, a column oven, ultraviolet spectrophotometer, a printer and a system controller was used. As the reversed-phase column, Nova Pak C18 (3.9×150 mm) was used.
(§6) A linear-gradient moving bed of a 0.1% TFA-containing acetonitrile-water system was used, the injection amount of the sample was 70 μL, and the flow rate was 1 mL/min.
(§7) As HPLC apparatus, U980HPLC (produced by JASCO Corporation) was used. This apparatus was equipped with an ODS (C18) column (Mightysil RP-18, 2×250 mm, produced by Kanto Chemical Co Ltd). The moving bed solvent was a 0.2% formic acid-containing acetonitrile-water system, and the concentration was raised from 0% to 40% acetonitrile by linear gradient in 40 minutes, and washing was carried out with 100% acetonitrile for 10 minutes. The injection amount of the sample was 10 μL, and the column temperature was 40° C.
(§8) The MS analysis was carried out in accordance with an MS/MS system with a Quattro LC mass spectrophotometer (Micromass, Manchester, UK) by a Multiple Reaction Monitoring method of 4 channels. That is to say, an eluate from the HPLC was monitored by m/z being [M+H]^+ and m/s of its fragment ion species.

[1] = test system: osteoclasts (primary mouse bone marrow cell culture); assay: Evaluation Test 1-1: osteoclast differentiation culture on plastic Petri dish (TRAP); type: cell-based; conditions: 625 μM end concentration, after 6 days culture, control (blank) = 100, n = 6
Method: The evaluation was carried out in accordance with Kobayashi Y. et al.'s osteoclast differentiation culture method [J. Bone Miner. Metab. (2004) 22: p. 318-328].
That is to say, the Hyp-Gly and a 1:1 mixture of the Hyp-Gly and the Pro-Hyp were used, and each of them was added to a primary mouse bone marrow cell culture liquid so as to be 625 μM in end concentration. After 6 days from the culture, each inhibition activity of tartaric acid resistant acid phosphatase (TRAP) being a marker enzyme was examined. In the same way, the TRAP inhibition activity when using the other dipeptides (Pro-Hyp, Ala-Hyp, Leu-Hyp, Phe-Hyp, Ser-Hyp), the tripeptide (Pro-Hyp-Gly) and the amino acids (Pro, Hyp) was examined. Furthermore, as a control, the TRAP inhibition activity when adding no peptide (blank) was also examined.

osteoclasts = assay: Evaluation Test 1-1: Pit assay, osteoclasts cultured on dentin slices; type: cell-based, mouse; conditions: control (blank) = 100, n = 6; for Relative number (%) of TRAP positive multinucleate giant cells (osteoclasts) in culture on dentin slices: culture about 1 week on dentin slices; for Relative number (%) of Pit: number of absorption pits on dentin slices, culture about 1 week
Method: In addition, the degree of inhibition of differentiation and activation of osteoclasts by the various peptides and amino acids was evaluated by the following Pit assay. That is to say, the Pit assay where osteoclasts were cultured on […] was carried out in accordance with Kakudo S, et al. (1996). J. Bone Miner. Metab. 14: 129-136, specifically, as follows.
Precursory cells of osteoclasts derived from young mouse […] were freeze-preserved at −80° C. together with a bone marrow stroma cells-containing suspension in the presence of 10% DMSO, thereby making matured osteoclasts extinct.
These cells of 2.0×10^5 in number were seeded into each well of a 96-well plate where dentin slices were set, and each peptide to be tested was added to the culture liquid, and culture was carried out at 37° C. in 5% CO2 for about 1 week. Thereafter, cells were removed from the dentin slices by a silicon-made rubber POLICEMAN, and then the dentin slices were dyed with an […] for several minutes. Hereupon, the number of TRAP dyeing positive multinucleate giant cells (osteoclasts) was counted by the TRAP dyeing, and the number relative to the number of cells in the control (blank) was calculated. Thereafter, the Pit number (number of absorption pits) by osteoclasts was counted under a microscope, and the degree of inhibition of activity of osteoclasts by each peptide to be tested was indicated by the ratio relative to the blank (control).

[2] = test system: osteoblast stock MC3T3-E1; assay: Evaluation Test 1-2: promotion of differentiation and activation of osteoblasts (ALP); type: cell-based; conditions: MC3T3-E1, 2.5 mmol/L end concentration, after 10 days culture, control (blank) = 100
Method: Each of dexamethasone (end concentration: 1 nmol/L), β-glycerophosphoric acid (end concentration: 5 mmol/L), and ascorbic acid (end concentration: 100 μg/mL) was added to an osteoblast stock MC3T3-E1 culture liquid, and then the Hyp-Gly and a 1:1 mixture of the Hyp-Gly and the Pro-Hyp were used, and each of them was added to the aforementioned culture liquid so as to be 2.5 mmol/L in end concentration. After 10 days from the culture, each promotion activity of alkaline phosphatase (ALP) being a marker enzyme for differentiation and calcification of osteoblasts was examined. In the same way, the ALP promotion activity when using the other dipeptides (Pro-Hyp, Ala-Hyp, Leu-Hyp, Phe-Hyp, Ser-Hyp), the tripeptide (Pro-Hyp-Gly) and the amino acids (Pro, Hyp) was examined. Furthermore, as a control, the ALP promotion activity when adding no peptide (blank) was also examined.

[3] = test system: precursory cartilage cell stock ATDC5; assay: Evaluation Test 1-3: inhibition of degeneration of cartilage cells (ALP); type: cell-based; conditions: ATDC5, 2.5 mmol/L end concentration, after 5 days culture, control (blank) = 100
Method: The Hyp-Gly, a 1:1 mixture of the Hyp-Gly and the Pro-Hyp and a 1:1:1 mixture of the Hyp-Gly, the Pro-Hyp and the Ala-Hyp were used, and each dipeptide was added to a precursory cartilage cell stock ATDC5 culture liquid so as to be 2.5 mmol/L in end concentration. After 5 days from the culture, each inhibition activity of alkaline phosphatase (ALP) being a marker enzyme for hypertrophied cartilages and calcification was examined. In the same way, the ALP activity when using the other dipeptides (Pro-Hyp, Ala-Hyp, Leu-Hyp, Phe-Hyp, Ser-Hyp), the tripeptide (Pro-Hyp-Gly) and the amino acids (Pro, Hyp) was examined. Furthermore, as a control, the ALP activity when adding no peptide (blank) was also examined.

[4] = test system: precursory cartilage cell stock ATDC5; assay: Evaluation Test 2-2: ALP inhibition activity of Pro-Hyp and comparisons; type: cell-based; conditions: ATDC5, 2.5 mM, after 5 days culture, N group = 1.0
Method: The aforementioned PC (PC group), FC (FC group) and PC-CA (PC-CA group) were used, and each collagen peptide was added to a precursory cartilage cell stock ATDC5 culture liquid so as to be 0.1% in end concentration. After 5 days from the culture, each inhibition activity of alkaline phosphatase (ALP) being a marker enzyme for hypertrophied cartilages and calcification was examined. For comparison, the ALP inhibition activity when adding no peptide (N group), the ALP inhibition activity when using peptone (Pe group) of 0.1% in end concentration, and the ALP inhibition activity when using the aforementioned PC-Cont (PC-Cont group) and PC-CA-Cont (PC-CA-Cont group) were also examined.
The ALP inhibition activity was examined in the same way as of evaluation test 2-1 except that: a dipeptide Pro-Hyp as synthesized by a solid-phase method (produced by PH Japan) ([Pro-Hyp] group) was used, the amount of its addition was changed to 2.5 mM and, for comparison, no peptide was added (N group) or glycine being a free amino acid (Gly group), proline being a free amino acid (Pro group), hydroxyproline being a free amino acid (Hyp group), a free amino acid mixture of proline and hydroxyproline ([Pro+Hyp] group), a free amino acid mixture of glycine, proline and hydroxyproline ([Gly+Pro+Hyp] group), and a tripeptide Pro-Hyp-Gly as synthesized by a solid-phase method (produced by PH Japan) ([Pro-Hyp-Gly] group) were used.

[5] = rat, in vivo
Method: as §1, §2, §3, §4, §5, §6, §7, §8

level at time molar (in vivo)	Compound	Relative area (%) of TRAP positive multinucleate giant cells (osteoclasts) in culture on plastic Petri dish [1]	Relative number (%) of TRAP positive multinucleate giant cells (osteoclasts) in culture on plastic Petri dish [1]	Relative number (%) of TRAP positive multinucleate giant cells (osteoclasts) in culture on dentin slices (osteoclasts)	Relative number (%) of Pit (osteoclasts)	Relative value (%) of ALP [2]	Relative value (%) of ALP [3]	Relative ALP activity [4]	Intestine absorption, in words [5]
0.7 µM	N[C@@H](CO)C(=O)N1C[C@H](O)C[C@H]1C(=O)O [Comparative Example 3, Ser-Hyp] (H-Ser-[Hyp]-OH; N-terminus and C-terminus assumed)								
	O=C(O)[C@@H]1CCCN1 [Comparative Example 5, Proline]	125 ± 69%	119 ± 44%	119 ± 20%	121 ± 23%	97 ± 15%	98 ± 10%	0.98 ± 0.1	
	O=C(O)[C@@H]1C[C@@H](O)CN1 [Comparative Example 6, hydroxyproline]	117 ± 13 %	126 ± 4 %	141 ± 9 %	131 ± 11 %	103 ± 25%	101 ± 1%	1.0 ± 0.01	
9.8 µM	O=C(O)CNC(=O)[C@@H]1C[C@@H](O)CN1 [Example 1, Hyp-Gly] (H-[Hyp]-Gly-OH; N-terminus and C-terminus assumed)								absorbed into intestine extremely rapidly and stably (without being decomposed into amino acids)
	NCC(=O)O [Gly, glycine]							1.1 ± 0.01	
21.3 µM	O=C(O)[C@@H]1C[C@@H](O)CN1C(=O)[C@@H]1CCCN1 [Referential Example 1-1, Pro-Hyp] (H-Pro-[Hyp]-OH; N-terminus and C-terminus assumed)								absorbed into intestine extremely rapidly and stably (without being decomposed into amino acids)
1.2 µM	C[C@H](N)C(=O)N1C[C@H](O)C[C@H]1C(=O)O [Referential Example 1-2, Ala-Hyp] (H-Ala-[Hyp]-OH; N-terminus and C-terminus assumed)								
	Leu-Hyp [Comparative Example 1]	83 ± 27%	88 ± 22%	101 ± 12%	91 ± 11%	92 ± 12%	93 ± 12%		
	Phe-Hyp [Comparative Example 2]	118 ± 21%	119 ± 16%	98 ± 11%	109 ± 15%	109 ± 11%	109 ± 11%		
	Pro-[Hyp]-Gly [Comparative Example 4]	113 ± 11%	109 ± 15%	91 ± 11%	97 ± 13%	103 ± 22%	84 ± 14%	0.8 ± 0.01	
